Experimental data: ChEMBL document CHEMBL5465560, “Selectivity Literature for EUbOPEN Chemogenomic Library” (2024)
Each block holds one compound with its values, some of them ahead of it.

Columns and labels:
[1] = target: Proto-oncogene tyrosine-protein kinase ROS (Homo sapiens) (UniProt P08922); assay: Selectivity interaction (KinomeScan (DiscoverX)) EUB0000666a ROS1; conditions: at 10 µM
[2] = target: T1, Mitogen-activated protein kinase kinase kinase kinase 2 (Homo sapiens) (UniProt Q12851); assay: Selectivity interaction (ActivX KiNativ screen (kinase selectivity in THP-1 cell lysates)) EUB0000639a MAP4K2; type: subcellular; conditions: lysate, at 0.04 µM
T1 sequence (whole entry): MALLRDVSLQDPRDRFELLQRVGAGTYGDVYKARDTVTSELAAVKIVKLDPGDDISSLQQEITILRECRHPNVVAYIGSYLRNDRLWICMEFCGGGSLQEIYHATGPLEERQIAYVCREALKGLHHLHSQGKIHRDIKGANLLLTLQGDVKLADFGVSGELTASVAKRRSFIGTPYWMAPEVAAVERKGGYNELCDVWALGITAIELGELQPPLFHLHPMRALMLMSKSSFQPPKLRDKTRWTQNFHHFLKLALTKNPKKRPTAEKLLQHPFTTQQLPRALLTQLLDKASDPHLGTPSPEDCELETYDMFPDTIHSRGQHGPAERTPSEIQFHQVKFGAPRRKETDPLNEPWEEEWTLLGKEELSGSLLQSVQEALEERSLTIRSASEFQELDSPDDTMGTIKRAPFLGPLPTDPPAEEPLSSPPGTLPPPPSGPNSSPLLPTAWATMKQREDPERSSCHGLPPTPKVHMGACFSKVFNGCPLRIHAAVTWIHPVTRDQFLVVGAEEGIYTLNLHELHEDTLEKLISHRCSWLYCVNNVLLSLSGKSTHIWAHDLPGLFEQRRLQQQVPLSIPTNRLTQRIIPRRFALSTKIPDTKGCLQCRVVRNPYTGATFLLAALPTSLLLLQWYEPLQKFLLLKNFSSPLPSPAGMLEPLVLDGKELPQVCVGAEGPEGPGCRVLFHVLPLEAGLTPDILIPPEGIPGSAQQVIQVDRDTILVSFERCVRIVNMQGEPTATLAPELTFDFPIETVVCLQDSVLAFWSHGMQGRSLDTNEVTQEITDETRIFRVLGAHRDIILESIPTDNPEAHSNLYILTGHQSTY

[3] = target: Phosphorylase b kinase gamma catalytic chain, skeletal muscle/heart isoform (Homo sapiens) (UniProt Q16816); assay: Selectivity interaction (Kinase panel (Invitrogen)) EUB0000639a PHKG1; conditions: at 200 nM
[4] = target: T2, Tyrosine-protein kinase receptor TYRO3 (Homo sapiens) (UniProt Q06418); assay: Selectivity interaction (KinomeScan (DiscoverX)) EUB0000595a TYRO3; conditions: at 10 µM
T2 sequence (whole entry): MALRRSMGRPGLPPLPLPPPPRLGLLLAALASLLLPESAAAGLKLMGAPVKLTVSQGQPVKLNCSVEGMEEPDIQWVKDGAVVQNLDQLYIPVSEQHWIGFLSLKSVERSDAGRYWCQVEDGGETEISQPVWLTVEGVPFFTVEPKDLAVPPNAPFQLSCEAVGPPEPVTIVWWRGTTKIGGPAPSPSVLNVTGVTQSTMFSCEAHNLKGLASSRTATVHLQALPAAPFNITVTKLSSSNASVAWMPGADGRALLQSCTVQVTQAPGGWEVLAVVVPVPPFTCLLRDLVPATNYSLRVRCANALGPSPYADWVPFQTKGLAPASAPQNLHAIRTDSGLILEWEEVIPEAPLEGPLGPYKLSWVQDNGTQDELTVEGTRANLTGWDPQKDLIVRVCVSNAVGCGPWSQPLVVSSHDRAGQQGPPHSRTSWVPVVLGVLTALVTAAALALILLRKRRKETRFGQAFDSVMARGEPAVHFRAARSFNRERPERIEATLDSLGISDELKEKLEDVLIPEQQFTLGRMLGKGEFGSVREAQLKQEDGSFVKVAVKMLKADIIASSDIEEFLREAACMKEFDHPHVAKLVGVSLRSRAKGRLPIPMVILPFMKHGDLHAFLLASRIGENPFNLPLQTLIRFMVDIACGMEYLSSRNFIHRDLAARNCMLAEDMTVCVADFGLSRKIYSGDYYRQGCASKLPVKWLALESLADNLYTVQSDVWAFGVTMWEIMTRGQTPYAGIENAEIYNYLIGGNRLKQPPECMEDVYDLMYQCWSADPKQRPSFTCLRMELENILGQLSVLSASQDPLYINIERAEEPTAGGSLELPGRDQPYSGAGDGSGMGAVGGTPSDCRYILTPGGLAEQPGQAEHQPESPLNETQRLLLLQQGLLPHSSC

[5] = test system: Leucine-rich repeat serine/threonine-protein kinase 2 (Homo sapiens), Q5S007 [G2019S]; assay: (§1) Selectivity interaction (KinomeScan (DiscoverX)) EUB0001049a LRRK2; conditions: at 1 µM
[6] = target: Leucine-rich repeat serine/threonine-protein kinase 2 (Homo sapiens, UniProt Q5S007); assay: as §1; conditions: at 1 µM
[7] = target: Calcium/calmodulin-dependent protein kinase type II subunit beta (Homo sapiens) (UniProt Q13554); assay: Selectivity interaction (KinomeScan (DiscoverX)) EUB0000229b CAMK2B; conditions: at 10 µM
[8] = target: T3, Cyclin-dependent kinase 11A (Homo sapiens) (UniProt Q9UQ88); assay: Selectivity interaction (KinomeScan (DiscoverX)) EUB0000229b CDK11A; conditions: at 10 µM
T3 sequence (whole entry): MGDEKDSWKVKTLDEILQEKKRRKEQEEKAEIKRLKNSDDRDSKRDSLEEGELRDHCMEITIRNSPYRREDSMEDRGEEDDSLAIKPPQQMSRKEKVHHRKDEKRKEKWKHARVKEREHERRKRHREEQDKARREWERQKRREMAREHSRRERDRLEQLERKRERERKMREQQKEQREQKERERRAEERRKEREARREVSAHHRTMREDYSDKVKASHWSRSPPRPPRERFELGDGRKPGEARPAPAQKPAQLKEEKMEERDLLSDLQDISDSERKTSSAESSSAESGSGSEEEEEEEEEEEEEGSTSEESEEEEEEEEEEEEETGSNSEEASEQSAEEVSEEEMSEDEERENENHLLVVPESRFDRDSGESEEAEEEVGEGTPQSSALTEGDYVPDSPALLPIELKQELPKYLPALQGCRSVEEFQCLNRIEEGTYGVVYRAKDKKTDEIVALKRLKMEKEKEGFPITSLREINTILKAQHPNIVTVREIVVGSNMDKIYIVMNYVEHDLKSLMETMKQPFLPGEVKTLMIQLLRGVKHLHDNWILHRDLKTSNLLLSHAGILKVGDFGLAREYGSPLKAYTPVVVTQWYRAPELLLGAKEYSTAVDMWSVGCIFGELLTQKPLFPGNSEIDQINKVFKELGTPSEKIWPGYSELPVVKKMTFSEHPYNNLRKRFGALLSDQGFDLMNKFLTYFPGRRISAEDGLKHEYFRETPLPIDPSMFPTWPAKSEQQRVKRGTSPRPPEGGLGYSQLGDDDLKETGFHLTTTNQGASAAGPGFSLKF

[9] = target: Serine/threonine-protein kinase PRP4 homolog (Homo sapiens) (UniProt Q13523); assay: Selectivity interaction (KinomeScan (DiscoverX)) EUB0001619a PRPF4; conditions: at 1 µM
Sequence of Serine/threonine-protein kinase PRP4 homolog (Homo sapiens) (Q13523 whole entry): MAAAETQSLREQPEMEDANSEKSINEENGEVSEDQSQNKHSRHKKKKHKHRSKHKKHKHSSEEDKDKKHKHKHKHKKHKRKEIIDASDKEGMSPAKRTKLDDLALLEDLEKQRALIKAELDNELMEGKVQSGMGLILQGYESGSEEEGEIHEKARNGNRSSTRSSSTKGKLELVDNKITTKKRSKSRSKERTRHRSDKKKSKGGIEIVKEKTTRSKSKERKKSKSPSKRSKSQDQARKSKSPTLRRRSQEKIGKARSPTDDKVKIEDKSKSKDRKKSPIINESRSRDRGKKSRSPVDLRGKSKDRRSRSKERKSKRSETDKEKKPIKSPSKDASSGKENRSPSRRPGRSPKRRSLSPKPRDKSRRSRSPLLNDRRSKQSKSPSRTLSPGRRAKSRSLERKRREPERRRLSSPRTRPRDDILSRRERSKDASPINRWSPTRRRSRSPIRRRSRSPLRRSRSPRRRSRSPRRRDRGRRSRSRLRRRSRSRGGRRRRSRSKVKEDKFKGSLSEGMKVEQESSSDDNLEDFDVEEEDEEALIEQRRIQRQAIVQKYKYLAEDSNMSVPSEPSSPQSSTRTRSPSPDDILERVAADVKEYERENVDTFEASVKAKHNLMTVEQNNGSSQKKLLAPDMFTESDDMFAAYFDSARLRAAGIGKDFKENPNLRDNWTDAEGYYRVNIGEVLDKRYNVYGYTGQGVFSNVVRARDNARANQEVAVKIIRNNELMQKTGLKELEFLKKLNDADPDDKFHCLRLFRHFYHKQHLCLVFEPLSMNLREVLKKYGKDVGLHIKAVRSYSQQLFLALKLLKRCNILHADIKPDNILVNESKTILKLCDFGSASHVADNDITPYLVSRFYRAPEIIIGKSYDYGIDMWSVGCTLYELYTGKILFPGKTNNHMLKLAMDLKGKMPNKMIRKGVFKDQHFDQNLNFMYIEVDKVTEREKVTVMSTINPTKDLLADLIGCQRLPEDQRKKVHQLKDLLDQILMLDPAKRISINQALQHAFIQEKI

Sequence of Leucine-rich repeat serine/threonine-protein kinase 2 (Homo sapiens), Q5S007 [G2019S] (Q5S007 whole entry G2019S): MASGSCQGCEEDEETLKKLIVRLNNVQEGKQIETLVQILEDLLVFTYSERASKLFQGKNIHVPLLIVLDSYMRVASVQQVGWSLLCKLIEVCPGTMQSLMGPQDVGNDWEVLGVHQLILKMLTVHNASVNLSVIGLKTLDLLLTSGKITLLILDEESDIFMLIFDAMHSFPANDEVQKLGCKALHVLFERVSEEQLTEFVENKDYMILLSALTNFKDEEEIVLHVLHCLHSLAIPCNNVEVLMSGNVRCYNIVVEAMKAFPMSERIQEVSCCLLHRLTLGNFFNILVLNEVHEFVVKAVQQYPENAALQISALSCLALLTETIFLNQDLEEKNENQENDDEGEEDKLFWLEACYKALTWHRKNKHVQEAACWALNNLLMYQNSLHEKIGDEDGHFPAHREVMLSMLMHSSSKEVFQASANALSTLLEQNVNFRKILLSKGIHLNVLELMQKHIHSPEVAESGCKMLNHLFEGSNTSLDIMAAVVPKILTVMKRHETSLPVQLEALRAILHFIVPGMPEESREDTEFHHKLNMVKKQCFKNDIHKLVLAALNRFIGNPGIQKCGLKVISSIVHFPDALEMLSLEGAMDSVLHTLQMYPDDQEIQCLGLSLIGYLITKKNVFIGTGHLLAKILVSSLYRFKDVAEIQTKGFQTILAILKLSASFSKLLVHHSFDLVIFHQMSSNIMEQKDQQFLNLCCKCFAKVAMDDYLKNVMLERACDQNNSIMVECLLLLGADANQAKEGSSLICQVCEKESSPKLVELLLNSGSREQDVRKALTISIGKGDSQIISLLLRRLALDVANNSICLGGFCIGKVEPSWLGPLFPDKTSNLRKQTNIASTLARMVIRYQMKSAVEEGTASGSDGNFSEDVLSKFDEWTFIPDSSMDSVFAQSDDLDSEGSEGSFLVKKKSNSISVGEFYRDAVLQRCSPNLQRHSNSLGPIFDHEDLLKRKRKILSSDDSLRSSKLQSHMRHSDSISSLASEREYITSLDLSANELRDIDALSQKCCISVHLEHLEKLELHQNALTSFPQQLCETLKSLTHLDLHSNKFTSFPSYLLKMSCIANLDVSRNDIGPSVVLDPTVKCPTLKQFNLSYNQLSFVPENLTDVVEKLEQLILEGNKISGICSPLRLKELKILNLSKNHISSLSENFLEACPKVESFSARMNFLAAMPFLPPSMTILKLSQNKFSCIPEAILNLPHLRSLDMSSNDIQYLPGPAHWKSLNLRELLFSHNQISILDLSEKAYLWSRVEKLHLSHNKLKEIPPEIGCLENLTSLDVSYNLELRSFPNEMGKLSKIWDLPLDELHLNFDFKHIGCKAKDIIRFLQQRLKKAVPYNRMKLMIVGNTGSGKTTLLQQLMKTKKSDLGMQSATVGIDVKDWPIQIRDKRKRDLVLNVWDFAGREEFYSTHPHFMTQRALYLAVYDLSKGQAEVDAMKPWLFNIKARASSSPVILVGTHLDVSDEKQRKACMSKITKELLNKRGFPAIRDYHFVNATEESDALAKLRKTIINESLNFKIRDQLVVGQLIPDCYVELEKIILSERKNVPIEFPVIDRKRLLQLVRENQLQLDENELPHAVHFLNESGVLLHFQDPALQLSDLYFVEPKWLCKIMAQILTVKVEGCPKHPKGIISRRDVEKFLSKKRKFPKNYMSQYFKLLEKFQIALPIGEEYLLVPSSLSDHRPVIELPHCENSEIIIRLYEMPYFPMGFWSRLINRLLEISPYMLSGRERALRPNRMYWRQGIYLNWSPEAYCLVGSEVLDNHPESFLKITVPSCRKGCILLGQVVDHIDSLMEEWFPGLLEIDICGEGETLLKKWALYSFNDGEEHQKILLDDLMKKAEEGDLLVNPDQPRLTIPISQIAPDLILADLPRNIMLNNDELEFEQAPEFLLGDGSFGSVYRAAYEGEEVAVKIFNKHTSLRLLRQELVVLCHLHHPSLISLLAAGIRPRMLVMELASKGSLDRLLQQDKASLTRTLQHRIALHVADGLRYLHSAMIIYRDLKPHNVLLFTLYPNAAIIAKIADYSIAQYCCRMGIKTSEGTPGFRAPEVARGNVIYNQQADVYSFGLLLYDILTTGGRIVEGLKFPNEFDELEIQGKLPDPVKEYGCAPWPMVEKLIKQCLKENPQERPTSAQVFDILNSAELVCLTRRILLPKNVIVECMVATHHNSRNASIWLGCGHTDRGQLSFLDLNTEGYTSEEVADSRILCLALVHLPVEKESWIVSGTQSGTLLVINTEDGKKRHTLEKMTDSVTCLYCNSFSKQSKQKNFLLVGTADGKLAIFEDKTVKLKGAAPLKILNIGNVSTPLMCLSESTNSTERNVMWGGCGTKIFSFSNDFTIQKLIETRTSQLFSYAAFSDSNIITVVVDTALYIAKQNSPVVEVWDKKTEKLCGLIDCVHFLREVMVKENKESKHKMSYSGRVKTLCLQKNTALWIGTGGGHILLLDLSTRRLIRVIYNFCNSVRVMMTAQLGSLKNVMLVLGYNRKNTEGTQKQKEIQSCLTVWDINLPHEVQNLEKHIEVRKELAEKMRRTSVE
Sequence of Phosphorylase b kinase gamma catalytic chain, skeletal muscle/heart isoform (Homo sapiens) (Q16816 whole entry, looked up, canonical isoform): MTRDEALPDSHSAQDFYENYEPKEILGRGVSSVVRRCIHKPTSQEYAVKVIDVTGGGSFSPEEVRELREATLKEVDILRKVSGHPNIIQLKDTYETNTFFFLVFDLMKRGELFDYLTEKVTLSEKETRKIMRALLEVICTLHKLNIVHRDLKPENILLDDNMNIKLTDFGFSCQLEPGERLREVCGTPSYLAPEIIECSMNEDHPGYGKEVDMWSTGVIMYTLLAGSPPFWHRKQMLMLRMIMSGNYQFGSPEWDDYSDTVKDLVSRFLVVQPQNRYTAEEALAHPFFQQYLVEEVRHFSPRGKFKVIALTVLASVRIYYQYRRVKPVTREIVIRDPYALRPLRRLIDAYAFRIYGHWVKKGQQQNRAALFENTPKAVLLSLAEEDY
Sequence of Calcium/calmodulin-dependent protein kinase type II subunit beta (Homo sapiens) (Q13554 whole entry): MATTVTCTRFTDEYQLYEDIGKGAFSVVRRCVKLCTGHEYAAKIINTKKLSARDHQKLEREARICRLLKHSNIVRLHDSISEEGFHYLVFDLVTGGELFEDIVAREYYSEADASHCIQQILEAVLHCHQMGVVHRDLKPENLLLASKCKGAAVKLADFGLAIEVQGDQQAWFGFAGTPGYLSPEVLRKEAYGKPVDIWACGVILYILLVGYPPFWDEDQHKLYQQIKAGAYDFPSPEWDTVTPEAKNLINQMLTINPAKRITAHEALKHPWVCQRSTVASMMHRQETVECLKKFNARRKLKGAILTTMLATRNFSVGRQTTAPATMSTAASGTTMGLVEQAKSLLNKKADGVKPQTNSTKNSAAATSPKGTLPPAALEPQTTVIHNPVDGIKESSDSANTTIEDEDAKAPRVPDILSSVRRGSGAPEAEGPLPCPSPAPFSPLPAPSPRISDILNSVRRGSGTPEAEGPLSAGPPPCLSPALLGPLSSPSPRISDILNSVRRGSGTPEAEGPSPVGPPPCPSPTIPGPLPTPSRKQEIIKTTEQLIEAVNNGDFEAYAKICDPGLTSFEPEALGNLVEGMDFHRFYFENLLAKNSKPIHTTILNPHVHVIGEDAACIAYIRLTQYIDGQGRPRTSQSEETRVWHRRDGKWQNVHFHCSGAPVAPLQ
Sequence of Leucine-rich repeat serine/threonine-protein kinase 2 (Q5S007 whole entry): as the sequence (Q5S007 whole entry G2019S) above, with S2019G counted along it

Compound: O=C(NOC[C@H](O)CO)c1ccc(F)c(F)c1Nc1ccc(I)cc1F
% of control [1]: 92%

% of inhibition [2]: -1% | % of inhibition [3]: 16.7%
Compound: CC[C@@H]1[C@H](F)C(=O)N[C@@H]1COc1nccc2cc(C(N)=O)c(OC)cc12 [ZIMLOVISERTIB]

Compound: COCC(=O)NC/C=C/c1ccc2ncnc(Nc3ccc(Oc4ccc(C)nc4)c(C)c3)c2c1 [CP-724714]
% of control [4]: 80%

Compound: COc1cc(Nc2nc(C)cc(-c3cnn4nc(OC)ccc34)n2)cc(C(F)(F)F)c1
% of control [5]: 100% | % of control [6]: 100%

Compound: COc1cc(N(C)c2ccnc3ccc(C(F)(F)F)cc23)cc(OC)c1OC
% binding [7]: 83% | % binding [8]: 97%

Compound: N#Cc1cccc(-c2c[nH]c3ncnc(N4CCOCC4)c23)c1
% of control [9]: 92%
